# Experimental data as given in patent US20150045341A1, “DISUBSTITUTED ARYL AZETIDINE DERIVATIVES AS SPHINGOSINE-1 PHOSPHATE RECEPTORS MODULATORS” (Allergan, Inc., priority 2013, published 2015).
# Biological target: T1, human S1P1 receptor (Homo sapiens, UniProt P21453)
# T1 construct: expressed in transfected cells; membranes from cells stably expressing the S1P1 receptor
# Assay: GTP γ35S binding assay for S1P1 activity
# Format: biochemical
# Details: membranes of cells stably expressing the S1P1 receptor, test compounds 0.08 to 5,000 nM, 30 min at 25° C.
# Method: Compounds were synthesized and tested for S1P1 activity using the GTP γ^35S binding assay. These compounds may be assessed for their ability to activate or block activation of the human S1P1 receptor in cells stably expressing the S1P1 receptor.
# GTP γ^35S binding was measured in the medium containing (mM) HEPES 25, pH 7.4, MgCl2 10, NaCl 100, dithiothreitol 0.5, digitonin 0.003%, 0.2 nM GTP γ^35S, and 5 μg membrane protein in a volume of 150 μl. Test compounds were included in the concentration range from 0.08 to 5,000 nM unless indicated otherwise. Membranes were incubated with 100 μM 5′-adenylylimidodiphosphate for 30 min, and subsequently with 10 μM GDP for 10 min on ice. Drug solutions and membrane were mixed, and then reactions were initiated by adding GTP γ^35S and continued for 30 min at 25° C. Reaction mixtures were filtered over Whatman GF/B filters under vacuum, and washed three times with 3 mL of ice-cold buffer (HEPES 25, pH7.4, MgCl2 10 and NaCl 100). Filters were dried and mixed with scintillant, and counted for ^35S activity using a β-counter. Agonist-induced GTP γ^35S binding was obtained by subtracting that in the absence of agonist. Binding data were analyzed using a non-linear regression method. In case of antagonist assay, the reaction mixture contained 10 nM […] in the presence of test antagonist at concentrations ranging from 0.08 to 5000 nM.
# T1 sequence (P21453 whole entry): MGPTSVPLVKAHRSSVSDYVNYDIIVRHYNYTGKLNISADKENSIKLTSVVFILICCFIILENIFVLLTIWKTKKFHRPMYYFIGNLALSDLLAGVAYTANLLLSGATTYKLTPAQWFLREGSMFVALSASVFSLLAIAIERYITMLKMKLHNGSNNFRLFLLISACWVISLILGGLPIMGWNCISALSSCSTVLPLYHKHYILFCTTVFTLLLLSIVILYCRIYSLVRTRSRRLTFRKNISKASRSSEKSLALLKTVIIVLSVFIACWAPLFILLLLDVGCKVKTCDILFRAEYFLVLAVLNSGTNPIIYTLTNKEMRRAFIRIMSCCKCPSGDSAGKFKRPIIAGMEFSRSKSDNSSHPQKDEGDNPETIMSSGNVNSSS
row,EC50,Structure (SMILES)
1,6.04 nM,"CCCCCC(CCCOc1ccc(CN2CC(C(=O)O)C2)cc1)Cc1ccc(C)c(C)c1 (stereo not drawn) [Compound 1, 1-(4-{[4-(3,4-Dimethylbenzyl)nonyl]oxy}benzyl)azetidine-3-carboxylic acid]"
2,1.03 nM,"CCCCC(CCCOc1ccc(CN2CC(C(=O)O)C2)cc1)Cc1ccc(C)c(C)c1 (stereo not drawn) [Compound 2, 1-(4-{[4-(3,4-Dimethylbenzyl)octyl]oxy}benzyl)azetidine-3-carboxylic acid]"
3,102 nM,"CCCCCCC(CCCOc1ccc(CN2CC(C(=O)O)C2)cc1)Cc1ccc(C)c(C)c1 (stereo not drawn) [Compound 5, 1-(4-{[4-(3,4-Dimethylbenzyl)decyl]oxy}benzyl)azetidine-3-carboxylic acid]"
4,11.7 nM,"CCCCC(CCCOc1c(C)cc(CN2CC(C(=O)O)C2)cc1C)Cc1ccc(C)c(C)c1 (stereo not drawn) [Compound 6, 1-(4-{[4-(3,4-Dimethylbenzyl)octyl]oxy}-3,5-dimethylbenzyl)azetidine-3-carboxylic acid]"
5,5.8 nM,"CCCCC(CCCOc1ccc(CN2CC(C(=O)O)C2)cc1C)Cc1ccc(C)c(C)c1 (stereo not drawn) [Compound 7, 1-(4-{[4-(3,4-Dimethylbenzyl)octyl]oxy}-3-dimethylbenzyl)azetidine-3-carboxylic acid]"
6,21.2 nM,"CCCC(CCCOc1ccc(CN2CC(C(=O)O)C2)cc1C)Cc1ccc(C)c(C)c1 (stereo not drawn) [Compound 16, 1-(4-{[4-(3,4-Dimethylbenzyl)heptyl]oxy}-3-methylbenzyl)azetidine-3-carboxylic acid]"

# Second part, the compound before the results:
row,Structure (SMILES),EC50
1,"CCCCC(CCCOc1ccc(CN2CC(C(=O)O)C2)cc1Cl)Cc1ccc(C)c(C)c1 (stereo not drawn) [1-(3-chloro-4-{[4-(3,4-dimethylbenzyl)octyl]oxy}benzyl)azetidine-3-carboxylic acid]",2.71 nM
2,"CCCC(CCCOc1c(C)cc(CN2CC(C(=O)O)C2)cc1C)Cc1ccc(C)c(C)c1 (stereo not drawn) [1-(4-{[4-(3,4-dimethylbenzyl)heptyl]oxy}-3,5-dimethylbenzyl)azetidine-3-carboxylic acid]",2.05 nM
3,"CCCCC(CCCOc1c(F)cc(CN2CC(C(=O)O)C2)cc1OC)Cc1ccc(C)c(C)c1 (stereo not drawn) [1-(4-{[4-(3,4-dimethylbenzyl)octyl]oxy}-3-fluoro-5-methoxybenzyl)azetidine-3-carboxylic acid]",2.91 nM
4,"CCCCC(CCCOc1ccc(CN2CC(C(=O)O)C2)cc1F)Cc1ccc(C)c(C)c1 (stereo not drawn) [1-(4-{[4-(3,4-dimethylbenzyl)octyl]oxy}-3-fluorobenzyl)azetidine-3-carboxylic acid]",5.42 nM
5,"CCCC(CCCOc1ccc(CN2CC(C(=O)O)C2)cc1)Cc1ccc(C)c(C)c1 (stereo not drawn) [Compound 3, 1-(4-{[4-(3,4-Dimethylbenzyl)heptyl]oxy}benzyl)azetidine-3-carboxylic acid]",6.51 nM
6,"CCC(CCCOc1ccc(CN2CC(C(=O)O)C2)cc1)Cc1ccc(C)c(C)c1 (stereo not drawn) [Compound 4, 1-(4-{[4-(3,4-Dimethylbenzyl)hexyl]oxy}benzyl)azetidine-3-carboxylic acid]",69.2 nM
7,"CCCCC(CCCOc1ccc(CN2CC(C(=O)O)C2)cc1Br)Cc1ccc(C)c(C)c1 (stereo not drawn) [Compound 8, 1-(3-Bromo-4-{[4-(3,4-dimethylbenzyl)octyl]oxy}benzyl)azetidine-3-carboxylic acid]",6.54 nM
8,"CCCCCC(CCCOc1ccc(CN2CC(C(=O)O)C2)cc1Cl)Cc1ccc(C)c(C)c1 (stereo not drawn) [Compound 13, 1-(3-Chloro-4-{[4-(3,4-dimethylbenzyl)nonyl]oxy}benzyl)azetidine-3-carboxylic acid]",13.8 nM
9,"CCCC(CCCOc1ccc(CN2CC(C(=O)O)C2)cc1Cl)Cc1ccc(C)c(C)c1 (stereo not drawn) [Compound 14, 1-(3-Chloro-4-{[4-(3,4-dimethylbenzyl)heptyl]oxy}benzyl)azetidine-3-carboxylic acid]",11.6 nM
